Patent publication US9765115B2, “Inhibitors of metastasis, methods of generating such inhibitors and their therapeutic applications” (Board of Supervisors of Louisiana State University acting …, priority 2011, dated 2017)

What was measured:
prostate tumor = details: Shah et al., 2009; cited from earlier work
[1] = tested on: TCF/LEF promoter activity in PC-3 cells; assay: TCF/LEF luciferase reporter assay (pGL3-OT/pGL3-OF); format: cell-based
Description: FIG. 28 depicts effect of CT on TCF/LEF promoter activity in PC-3 cells with various compounds added with CT. Cells were seeded into 6-well plates and transfected with the pGL3-OT luciferase/pRL-tK plasmids or pGL3-OF-luciferase/pRL-TK plasmids. The cells were then incubated in complete medium for 48 h, after which they were serum-starved for 16 h. The cells were then treated with CT and/or PMH compounds, and the cell lysates analyzed for luciferase activity. The results are expressed as relative light units (RLU) after normalization with Renilla luciferase activity. The experiment was repeated three separate times, and results expressed as means±S.E.M.
Certain hydantoin-like molecules isolated from sea sponge have been identified that could inhibit prostate cell metastasis (Shah et al., 2009; Mudit et al., 2011). Disruption of junctional complex stabilizes intracellular β-catenin, leading to its translocation in the nucleus, where it can bind to its partner LEF-1 (lymphocyte enhancer binding factor-1) to transactivate target genes. The transcription of TCF/LEF genes can be quantitated by using luciferase-based reporter plasmids, pGL3-OT and pGL3-OF, the improved version of the Topflash and Fopflash vectors (Shah et al., 2009). This assay can be used to comparatively evaluate junction disrupting activity of multiple compounds in a single assay. […] The two compounds, MRM-6 and MRM-4, derivatives of PMH whose structures are shown below, were obtained from Dr. K. A. El Sayed.

protein kinase A (PKA) = assay: PKA activity in cell lysates; format: cell-based; details: 100 nM of mPKI, 10 μM of H-89
Description: The lysates of untreated and CT-treated PC-3CTRwt and PC-3CTRΔESS cells were also used to determine CT-stimulated protein kinase A (PKA) and protein kinase C (PKC) activity (PKA and PKC assay kits, Promega, Madison, Wis.). The manufacturer's instructions were followed.
FIG. 1E depicts the effect of 50 nM CT on PKA activity in cell lysates of untreated and CT-treated PC-3 CTRwt and PC-3 CTRΔESS cells that were incubated with PKA substrate peptide and ^32P-ATP, and also treated with an activator of PKA, forskolin (FSK). FIG. 1F depicts the effect of 50 nM CT on PKC activity in lysates of untreated and CT-treated PC-3 CTRwt and PC-3 CTRΔESS cells that were incubated with PKC substrate peptide and ^32P-ATP, and also treated with an activator of PKC, phorbol 12-myristate 13-acetate (PMA).
To test whether specific PKA inhibitors abrogate CT-induced TJ disassembly, two specific, well-characterized PKA inhibitors, mPKI and H-89, were used. PC-3CTRwt cells were treated with CT (50 nM for 30 min) in the presence of mPKI (100 nM) or H-89 (10 μM). Either of these inhibitors was added 15 min prior to the addition of CT. […] FIG. 16A depicts photo micrographs of PC3-CTRwt cells, CT-stimulated in the presence and absence of mPKI. […]

PC-3-CTR-wt cells = assay: Matrigel in vitro invasion assay; format: cell-based; details: for effect on CT-induced invasion / effect on basal invasion: peptide 50 μM; for effect on CT-induced invasion: CT 50 nM; for effect on basal invasion: no CT
Description: Invasion experiments were conducted in Matrigel™ invasion chambers as previously described (Sabbisetti et al., 2005).
CT increases invasiveness, and even induces an invasive phenotype in non-invasive prostate cancer cells. The role of PDZ-binding motif in CT-stimulated invasion was examined. FIG. 2C depicts CTR-C PDZ-binding motif mutation and effects on cell invasion. PC-3V, PC-3 CTRwt and PC-3 CTRΔESS cells were added to upper insert of invasion chambers with or without 50 nM CT, and cells that passed through the Matrigel™ barrier were counted after 48 h. The results are expressed as mean number of invaded cells per 400× field ±SEM (n=6; *p<0.05 (PC-3V v PC-3CTR-wt); $ p<0.05 (PC-3CTR-wt v PC-3CTRΔESS); $$-p<0.05 (PC-3CTRwt+CT v PC-3CTRΔESS+CT) (one-way ANOVA and Newman-Keul's test)). Expression of CTRwt in PC-3 cells increased invasion by 2.5-fold (FIG. 2C).
(§1) As shown above, CTR binds to ZO-1 through PDZ interaction (i.e. PDZ ligand on C-tail of CTR binds to the PDZ domain of ZO-1). To attenuate this binding, ZO-1 was saturated with a small C-terminal peptide of CTR sequence containing the PDZ-binding motif. Since ZO-1 is an intracellular membrane protein, the interfering peptide was delivered inside the plasma membrane. It has been shown that trans-activating transcriptional activator (TAT) protein (86-mer polypeptide) from HIV-1 enters mammalian cells when added to the surrounding media (Frankel et al., 1988; Green et al., 1989). Certain small regions of such proteins (10-16-mers) called protein transduction domains (PTDs), also efficiently traverse biological membranes (Elliott et al., 1997). Therefore, a fusion peptide Pep 1 was synthesized of TAT-peptide sequences of HIV virus and CTR-C(N-[…]-C (SEQ ID NO:2), CTR-C sequence underlined). The first experiment was to see if Pep I binds to ZO-1 in reversible fashion. For this, amino acid Y in Pep I was labeled with ^125I, and the binding with ZO-1 analyzed in the presence/absence of unlabeled Pep I (1000×; 20 μM). PC-3CTR-ZO-1-MYC cells were first incubated with unlabeled Pep I or control peptide (20 μM) for 5 min. The cells were then incubated with ^125I-pep I or C for 25 min. The cells were then washed in IP buffer, treated with DSP, and lysed. ZO-1 IPs were obtained, fractionated on SDS-PAGE, and autoradiographed. […] Next, whether Pep I competes with CTR for ZO-1 binding was tested. For this, PC-3-CTR-wt cells were treated with CT (50 nM) and or Pep I (50 μM) for 15 min. The CTR IPs were then immunoblotted and probed for ZO-1 immunoreactivity. […] Next, the biological impact of this phenomenon was examined by testing the effect of Pep I on CTR-stimulated invasion.
The binding of ZO-1 and CTR can be attenuated by saturating ZO-1 with a small C-terminal peptide of CTR sequence containing the PDZ ligand. Since ZO-1 is an intracellular membrane protein, the interfering peptide must penetrate plasma membrane to interact with ZO-1. As discussed above, fusion peptides of small TAT peptides (12-mer) and six (Pep I) or eight amino acids (Pep II) of C-terminal of CTR were synthesized. Control peptides were TAT peptides (12-mer) containing random amino acid sequence of equivalent size (6-mer). […] Thus, these two peptides (sequences given below) could be used therapeutically to attenuate or inhibit metastasis in cancerous cells.

CTR-ZO-1 interaction = assay: CTR-ZO-1 co-immunoprecipitation; format: cell-based; details: Pep I 50 μM, with or without CT 50 nM, PC-3-CTR-wt cells
Description: Serum-starved PC-31-V, PC-31-CTRwt or PC-31-CTRΔESS cells (2×10^6 per 100 mm dish) were stimulated with or without 50 nM CT for 3 min, washed, and lysed in the IP buffer as previously described (von Zastrow et al., 1994). CTR in normalized lysate proteins was immunoprecipitated with anti-FLAG EZ-view beads (Sigma Chemical Co., St. Louis, Mo.), and eluted with FLAG peptide (600 μg/ml in PBS). CTR immunoprecipitates were processed for ZO-1 immunoblotting. To control for protein loading and transfer, the blots were stripped and reprobed with immunoprecipitating antibody.
PC-31 cells stably expressing either FLAG-CTRwt or FLAGCTRΔESS were treated with or without CT for 3 min. The analysis of FLAG-CTR IPs confirmed that only FLAG-CTRwt, but not FLAG-CTRΔESS, co-precipitated ZO-1 (FIG. 3B). […] The effect of multiple CT concentrations on CTR-ZO-1 co-precipitation was tested in PC-3 cells. […] However, co-precipitation of ZO-1 by CTRwt was strong in PC-3 cells stimulated with 10 nM CT, and was even stronger in the cells receiving 100 nM CT.
as §1

ZO-1 = target: T1, ZO-1 (Homo sapiens, UniProt Q07157); assay: 125I-Pep I binding to ZO-1 (ZO-1 immunoprecipitation, autoradiography)
T1 construct: expressed in transfected cells; host or cells: PC-3CTR-ZO-1-MYC cells
T1 sequence (Q07157 whole entry): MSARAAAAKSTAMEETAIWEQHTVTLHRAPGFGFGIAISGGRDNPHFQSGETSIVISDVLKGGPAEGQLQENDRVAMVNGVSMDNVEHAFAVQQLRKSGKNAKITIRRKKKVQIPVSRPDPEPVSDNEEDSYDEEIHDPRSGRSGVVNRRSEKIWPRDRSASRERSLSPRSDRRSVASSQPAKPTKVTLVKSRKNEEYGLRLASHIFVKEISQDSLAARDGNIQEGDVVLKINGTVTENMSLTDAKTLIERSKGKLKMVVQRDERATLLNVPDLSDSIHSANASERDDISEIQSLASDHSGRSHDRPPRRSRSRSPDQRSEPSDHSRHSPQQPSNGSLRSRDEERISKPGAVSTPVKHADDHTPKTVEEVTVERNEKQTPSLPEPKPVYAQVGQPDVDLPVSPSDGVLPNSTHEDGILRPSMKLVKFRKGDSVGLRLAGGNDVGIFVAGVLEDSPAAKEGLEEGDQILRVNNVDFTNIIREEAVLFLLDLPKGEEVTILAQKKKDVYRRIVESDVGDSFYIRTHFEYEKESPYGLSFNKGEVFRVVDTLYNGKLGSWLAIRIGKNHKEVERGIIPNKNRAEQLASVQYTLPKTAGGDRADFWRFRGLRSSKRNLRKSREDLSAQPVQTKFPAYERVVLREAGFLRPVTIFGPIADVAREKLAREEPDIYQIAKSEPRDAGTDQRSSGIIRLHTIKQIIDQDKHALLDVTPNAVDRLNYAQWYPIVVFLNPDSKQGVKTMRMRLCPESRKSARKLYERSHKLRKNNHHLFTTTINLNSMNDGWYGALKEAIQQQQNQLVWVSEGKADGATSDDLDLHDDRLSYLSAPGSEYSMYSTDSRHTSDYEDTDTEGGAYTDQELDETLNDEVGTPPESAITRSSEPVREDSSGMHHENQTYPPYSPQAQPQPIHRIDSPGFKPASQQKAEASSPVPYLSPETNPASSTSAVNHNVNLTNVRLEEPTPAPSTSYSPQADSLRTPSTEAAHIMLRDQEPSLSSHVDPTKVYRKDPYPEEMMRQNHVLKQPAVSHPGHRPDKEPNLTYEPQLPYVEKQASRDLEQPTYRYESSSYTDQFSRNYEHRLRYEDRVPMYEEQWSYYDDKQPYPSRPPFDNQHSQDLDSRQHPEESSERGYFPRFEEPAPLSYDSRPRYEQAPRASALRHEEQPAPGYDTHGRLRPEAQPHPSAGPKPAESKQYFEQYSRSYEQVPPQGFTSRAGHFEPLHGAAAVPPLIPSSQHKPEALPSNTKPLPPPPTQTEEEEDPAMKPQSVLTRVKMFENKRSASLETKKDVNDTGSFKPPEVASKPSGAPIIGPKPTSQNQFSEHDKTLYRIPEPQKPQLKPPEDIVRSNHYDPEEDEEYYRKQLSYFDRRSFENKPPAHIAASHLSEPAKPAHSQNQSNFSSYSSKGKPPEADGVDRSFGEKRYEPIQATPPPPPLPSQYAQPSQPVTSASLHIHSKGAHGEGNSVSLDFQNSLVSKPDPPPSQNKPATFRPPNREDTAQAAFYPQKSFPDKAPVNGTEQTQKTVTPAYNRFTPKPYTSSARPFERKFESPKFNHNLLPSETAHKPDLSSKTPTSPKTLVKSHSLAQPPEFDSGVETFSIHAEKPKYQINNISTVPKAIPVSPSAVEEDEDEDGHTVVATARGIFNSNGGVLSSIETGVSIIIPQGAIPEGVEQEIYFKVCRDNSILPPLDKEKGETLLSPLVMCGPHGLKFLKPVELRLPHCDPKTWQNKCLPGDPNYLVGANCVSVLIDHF
Description: The cells were then treated with ^125I-TAT-pepI or TAT-C for 25 min. The cell lysates were then immunoprecipitated with Anti-ZO-1 serum, the immunoprecipitates were washed, fractionated on SDS-gel, and then immunoblotted for ZO-1 and autoradiographed.
As shown above, CTR binds to ZO-1 through PDZ interaction (i.e. PDZ ligand on C-tail of CTR binds to the PDZ domain of ZO-1). To attenuate this binding, ZO-1 was saturated with a small C-terminal peptide of CTR sequence containing the PDZ-binding motif. Since ZO-1 is an intracellular membrane protein, the interfering peptide was delivered inside the plasma membrane. It has been shown that trans-activating transcriptional activator (TAT) protein (86-mer polypeptide) from HIV-1 enters mammalian cells when added to the surrounding media (Frankel et al., 1988; Green et al., 1989). Certain small regions of such proteins (10-16-mers) called protein transduction domains (PTDs), also efficiently traverse biological membranes (Elliott et al., 1997). Therefore, a fusion peptide Pep 1 was synthesized of TAT-peptide sequences of HIV virus and CTR-C(N-[…]-C (SEQ ID NO:2), CTR-C sequence underlined). The first experiment was to see if Pep I binds to ZO-1 in reversible fashion. For this, amino acid Y in Pep I was labeled with ^125I, and the binding with ZO-1 analyzed in the presence/absence of unlabeled Pep I (1000×; 20 μM). […]

O=C1NC(=O)/C(=C/c2ccccc2)N1 [PMH, phenyl-methylene hydrantoin]
cell-cell adhesion, prostate tumor growth and metastasis (prostate tumor): enhance cell-cell adhesion and attenuate prostate tumor growth and metastasis | effect on CT-stimulated luciferase activity ([1]; with 50 nM CT): decreased it remarkably

O=S(=O)(NCCNC/C=C/c1ccc(Br)cc1)c1cccc2cnccc12 [Pep H-89]
effect on CT-stimulated PKA activity (protein kinase A (PKA)): completely abolished

N-EQESSAAYGRKKRRQRRR-C [Pep I]
relative potency as antagonist of CT-induced invasion (PC-3-CTR-wt cells; Pep I versus Pep II, 50 μM): the more potent antagonist | effect on CT-induced invasion (PC-3-CTR-wt cells): significantly attenuated | effect on CT-induced invasion (PC-3-CTR-wt cells; listed as TAT-pepI): attenuate | effect on basal invasion (PC-3-CTR-wt cells): neither the control peptide nor Pep I (50 μM) significantly affected | effect on basal invasion (PC-3-CTR-wt cells; listed as PepI): did not significantly affect | effect on CTR-ZO-1 co-precipitation (CTR-ZO-1 interaction): markedly diminished | binding to ZO-1 (co-IP of 125I-labeled peptide) (ZO-1; PC-3CTR-ZO-1-MYC cells, 25 min): bound to ZO-1 | binding of 125I-Pep I to ZO-1 in the presence of unlabeled Pep I (ZO-1; unlabeled Pep I 1000×, 20 μM): almost abolished

N-IIEQESSAYGRKKRRQRRR-C [Pep II]
effect on CT-induced invasion (PC-3-CTR-wt cells): significantly attenuated | effect on CT-induced invasion (PC-3-CTR-wt cells; listed as pepII): attenuate | effect on basal invasion (PC-3-CTR-wt cells): did not significantly affect

Nc1ccc(/C=C2\NC(=O)NC2=O)c(Cl)c1 [MRM-4, (Z)-5-(4-amino-2-chlorobenzylidene)imidazolidine-2,4-dione]
potency relative to PMH and S-PMH in blocking CTR-ZO-1 interaction-mediated TCF/LEF activity [1]: more potent | potency relative to PMH in inhibiting CT action ([1]; with 50 nM CT): significantly more potent than PMH

O=C1NC(=O)/C(=C/c2ccc(/C=C3/NC(=O)NC3=O)cc2)N1 [MRM-6, (5Z,5′E)-5,5′-(1,4-phenylenebis(methan-1-yl-1-ylidene))diimidazolidine-2,4-dione]
potency relative to PMH and S-PMH in blocking CTR-ZO-1 interaction-mediated TCF/LEF activity [1]: more potent | potency relative to PMH in inhibiting CT action ([1]; with 50 nM CT): significantly more potent than PMH

CCSC1=N/C(=C\c2ccccc2)C(=O)N1 [S-PMH]
cell-cell adhesion, prostate tumor growth and metastasis (prostate tumor): enhance cell-cell adhesion and attenuate prostate tumor growth and metastasis
